Measured values published in patent US8318812B2, “Therapeutic agents for the treatment of lymphoid malignancies” (The Ohio State University Research Foundation, priority 2006, dated 2012).

Assays:
[1] = system: PARP, Caspase 3, caspase 8 and caspase 9; assay: Western blot of PARP and caspases 3, 8, 9 in CLL cells; format: cell-based, Human
Method: Western blotting. Immunoblot assays were performed as described previously.(34) Cell lysates were prepared and quantified by the bicin choninic acid (BCA) method (Pierce, Rockford, Ill.). Lysates with 50 μg of total protein were separated using 10% sodium dodecyl sulfate-polyacrylamide-gel electrophoresis, and transferred to 0.2 μm nitrocellulose membranes (Schleicher & Schuell, Keene, N.H.). The blots were probed with indicated primary antibodies followed by Horseradish peroxidase (HRP)-conjugated goat anti-rabbit IgG or goat anti-mouse IgG (Bio-Rad Laboratories, Richmond, Calif.). Detection was made with chemiluminescent substrate (SuperSignal, Pierce Inc. Rockford, Ill.). The PARP (Ab-2) and Caspase 9 antibodies were purchased from Oncogene/Calbiochem/EMD Biosciences (San Diego, Calif.). The Caspase 3 (AR-14 caspase 3/cpp32 and caspase 8 (AR-18) antibodies were kind gift from Dr. John Reed (Burnham Institute, La Jolla, Calif.).
FTY720 induced apoptosis in CLL cells is not dependent on activation of caspases, the cysteine proteases of CED3/ICE family Several therapeutic agents such as glucocorticoids and chemotherapeutic agents such as fludarabine, chlorambucil and 2-chloro-2-deoxyadenosine induce cellular cytotoxicity in CLL cells through activation of caspases, the cysteine proteases of CED3/ICE family. […]

primary MCL cells = assay: Annexin V/PI toxicity in primary MCL cells; format: cell-based; details: Homo sapiens, WinNolin sigmoid inhibitory model
Method: Primary MCL cells were isolated from PBMC (with informed patient consent under a protocol approved by IRB) as described before. All the MCL patients were identified as outlined by the World Health Organization (WHO) classification. Human mantle cell lymphoma patient cell lines (Mino and Jeko) were obtained from Dr. Raymond Lai. Primary cells or MCL cell lines were incubated in RPMI 1640 media, supplemented with 10%-20% heat-inactivated fetal bovine serum, 2 mM L-glutamine and penicillin (100 U/mL)/streptomycin ([…]) at 37° C. in an atmosphere of 5% CO2. FTY720 was synthesized as previously described. Toxicity was determined by flow cytometry using Annexin-V-FITC and Propidium Iodide (PI) staining. Apoptotic cells were identified as Annexin-V+ and/or PI+ cells. Cells excluding both FITC and PI were considered viable. Western Blotting was performed as described previously using indicated antibodies. The PARP (Ab-2) and Caspase 9 antibodies were purchased from Oncogene/Calbiochem/EMD Biosciences (San Diego, Calif.). Cyclin D1, Akt, Actin, Mcl-1, p-ERK, ERK and Bcl-2 were obtained from Santa Cruz biotech (Santa Cruz, Calif.).
Several therapeutic agents, including fludarabine, chlorambucil, 2-chloro-2-deoxyadenosine and glucocorticoids, induce toxicity in B cell malignancies through activating caspases, the cysteine proteases of CED3/ICE family. […]

AML cell lines = assay: Annexin V/PI apoptosis assay in AML cell lines; format: cell-based; details: 48 hours
Method: Cell cultures were exposed to vehicle control and increasing doses of FTY720 for 48 hours. Cells were then stained with Annexin V (AnnV) and propidium iodide (PI), and analyzed using routine flow cytometry. Percentage of viable cells (AnnV− PI−), cells undergoing apoptosis (AnnV+ PI−), and necrotic cells (AnnV+ PI+) are represented for each cell line studied in FIG. 10A.

Raji cells = assay: Raji disseminated lymphoma/leukemia SCID mouse xenograft model; format: in vivo, SCID mice
Method: In vivo therapeutic efficacy evaluation in a xenograft model: The in-vivo evaluation of FTY720 was carried out using the disseminated lymphoma bearing SCID mouse xenograft model. This model was generated using human Raji B cell line injected into SCID mice as previously described. Raji cells were cultured in RPMI1640+10% FBS. Confluent cultures with >95% viability were confirmed to express human CD19 by flow cytometry. […] female 6-8 week-old C.B.-17 SCID mice (Taconic Farm, Germantown, N.Y.) were injected with 2×10^6 cells intravenously (i.v) in 200 ul sterile PBS via the tail vein. Seventy two hours post inoculation, the animals were divided into 4 equal treatment groups. […] All the animals were monitored daily for signs of illness and sacrificed immediately if hind limb paralysis, respiratory distress or 30% body weight loss was noted. Body weight was measured once every week. […] The presences of the CD19^+ cells were evaluated in the bone marrow of these mice by flow cytometry. […]

With `CCCCCCCCc1ccc(CCC(N)(CO)CO)cc1.Cl` [FTY720, 2-Amino-2-[2-(4-octylphenyl)ethyl]propane 1,3-diol hydrochloride] the PARP cleavage ([1]; 24 and 48 hours post treatment, CLL cells) was “failed to reveal PARP cleavage”, the “caspases 3, 8 and 9 activation” value ([1]; FTY720 treated CLL cells) was “remained in precursor forms” and the IC50 (primary MCL cells) was 10.7 µM. The “apoptosis in AML cell lines” value (AML cell lines) was “induces apoptosis”, the median survival time (Raji cells; FTY720 5 mg/kg every day for 2 weeks i.p., 95% CI 39-53) was 47 days and the “mice surviving without signs of disease” value (Raji cells; after a follow-up period of 200 days) was 4 of the 12.
